Source: US20090054529A1, “Flow Path Conditioner System” (priority 2005, published 2009)

Tested on: E coli (ATCC 25922, MRI EC 13) and Pseudomonas aeruginosa (ATCC 9027, MRI Ps 10)
Assay: Example 4 summary of the 62 test samples (both cultures pooled)
Type: cell-based
Conditions: aqueous mixtures of up to 20% v/v; Example 4 text summary
Protocol: Freshly cultivated cultures of E coli (ATCC 25922, MRI EC 13) and Pseudomonas aeruginosa (ATCC 9027, MRI Ps 10) were suspended in MHB (Mueller-Hinton Broth) nutrient broth at 10^8 cfu/ml (colony-forming units per milliliter), diluted about 1:10 in peptone nutrient broth to about 10^7 cfu/ml. About 1 ml of each of the diluted cultures was added to one each of 9 ml of the corresponding test solutions described below for 5.0 minutes and then diluted in two steps of 1:10 per step. 100 microliters of such diluted culture was then plated onto a conventional nutrient agar plate. Nutrient agar plates were incubated by conventional methods and the number of colonies present on each plate were counted. Positive controls combined freshly cultivated cultures above described with peptone broth were included in each test group and numbers of colonies in control plates were used as a reference.
Now referring to Table 4, the results of combining each test solution as described above with each of the E coli (ATCC 25922, MRI EC 13) and Pseudomonas aeruginosa (ATCC 9027, MRI Ps 10) cultures are summarized using the following quantitative nomenclature: […]

SMILES | effectiveness in reducing microorganisms
CCO [ethanol] | do not appear to be effective
CO [methanol] | do not appear to be effective
